These results are taken from article PMC8429736, “Pharmacological characterization of mutant huntingtin aggregate-directed PET imaging tracer candidates” (Scientific Reports, 2021).

Experiment [1] relates to mHTT aggregates in human HD brain sections. The experiment is described as follows: ARG, human post-mortem HD frontal cortex sections. It counts as binding.
The target in experiment [2] is phospho-Tau tangles (AT8 antibody) (Homo sapiens, UniProt P10636). The experiment is described as follows: HR ARG co-registration with AT8 antibody, human AD brain sections. It counts as binding. As to conditions: 10 nM CHDI-180, 10 nM CHDI-626, 0.1 nM PiB, 1 nM T808.
Experiment [3] has as its system mHTT aggregates in zQ175 brain homogenates. The experiment is described as follows: RAFTA with zQ175 brain homogenates. It is filed as binding, mouse. The method, then:
For RAFTA and MSD assays, mouse brains were transferred to lysis tubes and individually homogenized 1:3 (w/v) in brain lysis buffer (10 mM Tris pH 7.4, 800 mM NaCl, 1 mM EDTA, 1 × Protease inhibitor, 10% Sucrose, 0.5% Triton X-100, Benzonase (1:1000)) using a pre-cooled MP FastPrep homogenizer (3 × 30 s, 6.0 m/sec). Crude homogenates were transferred to LoBind reaction tubes (Eppendorf) and centrifuged at 15,700×g for 10 min at 4 °C. The supernatant was collected, and the pellet fraction was resuspended in brain lysis buffer. Generally, a minimum of three whole brains were lysed and fractions were pooled after homogenization to reduce assay variability due to inter-animal variability.
The total protein concentration of samples was determined by BCA assay (ThermoFisher Scientific, #23227), according to standard procedures and protein concentrations were adjusted to 5–10 mg/mL in brain lysis buffer. […]
For RAFTA analysis, frozen mouse brain homogenates were thawed on the day of the experiment and diluted with assay buffer (50 mM Tris pH 8.0; 150 mM NaCl) to a concentration of 500 µg/mL total protein. […] In experiments where non-specific binding (NSB) was determined, the incubation medium contained 5 µM of non-labeled (cold) CHDI-180, which was added prior to the addition of radioligand and incubated for 20 min at room temperature. […]

Experiment [4] concerns the target beta amyloid plaques in human AD brain sections (Homo sapiens, UniProt P05067). Nature of the experiment: ARG, human post-mortem AD frontal cortex sections. It counts as binding. To be noted: 1 nM radioligand.
Experiment [5] addresses T1, Exon1-Q46 aggregates (Homo sapiens, UniProt P42858, INS38QQQQQQQQQQQQQQQQQQQQQQQQQ).
T1 construct: MBP-HTT(1-89)Q46-His(6x); MBP (N, cleaved yes); made in house; host or cells: E. coli BL21 (DE3)
The experiment is described as follows: RBA competition binding against tritiated 3, Exon1-Q46 aggregates. The method, then:
For the competition assay format, Q46 or Exon1-Q46 aggregates at 1 µM (sample volume 150 µL) were pre-incubated in a 96-well round bottom plate (Corning, #3365) for 20 min with test compounds at room temperature (assay buffer 50 mM Tris–HCl pH 8.0, 150 mM NaCl). […] Radioligand 3 at 0.3 nM was added and incubated for 1 h at 37 °C.
Samples were then transferred onto a 96-well GF/B filter plate (Perkin Elmer, #6005177) using a Filtermate Harvester, aspirated by vacuum and wells washed twice with 200 µL PBS. After drying the filter plates for 1 h at 55 °C the back of the plate was sealed with aluminum cover and 30 µL of scintillation fluid (Perkin Elmer, #6013641) per well was added. The tops of the plates were sealed, and the plates were incubated for 15 min in the dark and counted in a TopCount or MicroBeta2 reader (both Perkin Elmer).
Raw sample data collected as counts per minute (cpm) were normalized towards assay controls: 0% inhibition = radioligand + protein + vehicle, 100% inhibition = radioligand + protein + 1 µM unlabeled ligand. A 4-parameter […] fit was applied to generate IC50 values.

Like-named read-outs stand apart in the source and are kept apart here.

T1 sequence (P42858 with tags, fused parts or gaps with the stated changes): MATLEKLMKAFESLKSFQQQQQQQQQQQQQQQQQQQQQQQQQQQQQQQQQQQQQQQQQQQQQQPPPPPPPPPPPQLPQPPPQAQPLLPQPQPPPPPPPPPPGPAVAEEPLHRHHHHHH
Chain of beta amyloid plaques in human AD brain sections (P05067 672-713 limits assumed): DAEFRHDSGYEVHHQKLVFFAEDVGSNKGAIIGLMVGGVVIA
Chain of phospho-Tau tangles (AT8 antibody) (P10636 623-695 limits assumed): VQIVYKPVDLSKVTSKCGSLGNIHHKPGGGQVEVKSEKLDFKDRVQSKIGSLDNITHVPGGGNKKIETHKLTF

Take `COc1ccc(COc2ccc3oc(-c4ccc(=O)n(C)n4)nc3c2)nc1` [CHDI-180]: the “NSB in HD brain sections” value in experiment [1] (1 nM radioligand plus cold compound) is on record as “below 0.5 fmol/mg tissue”. Also, in experiment [1] (1 nM radioligand, gray matter), the “binding to frontal cortical sections from HD donors” value stood at 2.0 ± 0.4 fmol/mg tissue. This compound also came in with a white matter binding in experiment [1] (1 nM radioligand, human frontal cortex sections) of no more than 0.5 fmol/mg tissue. Also, the “co-registration with AT8-positive phospho-Tau immunoreactivity” value in experiment [2] is listed as “did not co-register”. Also, in experiment [3] (3 nM radioligand, cortices, striata or hippocampi of 9-month-old HET zQ175), the “signal in pelleted material vs age-matched WT mice” value is “> tenfold”. The “binding in brain homogenates with age” value in experiment [3] (3-, 6-, 9-, 12-month-old HOM zQ175) is recorded as “age-dependent increase”. The entries for the “binding in AD post-mortem brain tissues” value in experiment [4] and in experiment [4] (gray matter) were 5.6 ± 0.7 fmol/mg and 5.6 ± 0.7 fmol/mg tissue, respectively. Further, the IC50 (as a rule, the concentration that gives 50% inhibition) in experiment [5] (0.3 nM tritiated 3 as radioligand, 1 µM aggregates, mean ± SD, read-out: IC50 Exon1-Q46) turned out to be 1.3 ± 0.7 nM; in experiment [5] (against tritiated 3, representative single experiment (Fig. 2B), read-out: IC50) it was 1.4 nM. The “Hill Slope” value in experiment [5] (against tritiated 3, representative single experiment (Fig. 2B)) amounted to 0.89.
